Results published in patent USRE47740E1, “Aminopyridinecarboxamides as CXCR2 modulators” (Syntrix Biosystems Inc., priority 2010, dated 2019).
Like-named read-outs stand apart in the source and are kept apart here.

Molecular target: CXCR2 (Homo sapiens (Human), UniProt P25025)
Test: Inhibition of CXCR2-mediated (GROα-induced) intracellular calcium release in human neutrophils (whole cell assay, Pharmacology Example 1)
Format: cell-based
Conditions: GROα 25 nM
Experimental: Briefly, human neutrophils were suspended in HBSS^− (without Ca^2+ and Mg^2+) containing 10 mM HEPES and FLIPR Calcium 3 dye (3.1×10^7 cells in total volume 1.7 mL). Cells were aliquoted (200 μL of the cell suspension per tube, 8 tubes total) and 2 μL of compound 9 (with appropriate dilutions) were added to each of 6 tubes. The tested concentrations of compound 9 were 156 nM, 312 nM, 625 nM, 1250 nM, 2500 nM and 5000 nM. As controls, 2 μL of DMSO (1% final concentration) were added to 2 other tubes. Cells were incubated for 30 min at 37° C. After dye loading, tubes were centrifuged at 6,000 rpm for 1 min, supernatant was removed and the cell pellet was re-suspended in 200 μL of HBSS^+ (with Ca^2+ and Mg^2+) containing 10 mM HEPES. The test compound or DMSO (control) was added again at the same concentrations that were used during cell loading. The cell suspension was aliquoted into a 96-well Reading Plate (Corning) in a volume of 90 μL (10^5 cells/well). The Compound Plate contained agonist (GROα in HBSS^−) or HBSS^− (control). After 15 sec of reading the basal level of fluorescence by FlexStation II, 10 μL of GROα or HBSS^− were automatically transferred from the Compound Plate into the Reading Plate (final concentration of GROα was 25 nM). Changes in fluorescence were monitored (λex=485 nm, λem=525 nm) every 5 s for 240 to 500 s at room temperature.
The maximum change in fluorescence, expressed in arbitrary units over baseline (Max-Min), was used to determine the GROα response. The effect of each compound on the GROα response was normalized and expressed as a percent of the DMSO control, which was designated as “100% response.” Curve fitting and calculation of the compound inhibitory concentration that reduces the level of the GROα response by 50% (IC50), or the compound agonist concentration that increases the level of the calcium release by 50% of the maximum agonist-induced change (EC50) were determined by nonlinear regression analysis of the dose-response curves generated using Prism 4 (GraphPad Software, Inc., San Diego, Calif.).

[1] = FLIPR Calcium 3 dye, read-out: Inhibition of CXCR2 IC50
[2] = value in synthesis example, read-out: IC50 in whole cell assay (Pharmacology Example 1)

Sequence of CXCR2 (P25025 whole entry): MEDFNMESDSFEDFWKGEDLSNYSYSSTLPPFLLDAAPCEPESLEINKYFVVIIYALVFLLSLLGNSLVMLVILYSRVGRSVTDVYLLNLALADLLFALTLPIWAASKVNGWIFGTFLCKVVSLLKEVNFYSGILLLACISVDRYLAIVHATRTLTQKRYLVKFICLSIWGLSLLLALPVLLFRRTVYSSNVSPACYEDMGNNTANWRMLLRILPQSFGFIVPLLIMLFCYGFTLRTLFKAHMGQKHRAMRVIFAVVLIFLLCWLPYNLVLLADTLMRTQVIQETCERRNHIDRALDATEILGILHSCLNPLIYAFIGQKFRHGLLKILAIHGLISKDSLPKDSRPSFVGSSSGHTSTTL

Structure (SMILES) | IC50 [1] | IC50 (read-out: IC50, inhibition of CXCR2-mediated intracellular calcium release) | IC50 [2]
CN(Cc1ccccc1O)c1ccc(C(=O)Nc2ccc(F)cc2)cn1 [Compound 9] | 586 ± 910 nM | 586 ± 91 nM | 590 ± 90 nM
CN(Cc1ccc(B(O)O)cc1)c1ccc(C(=O)Nc2ccc(F)cc2)cn1 [Compound 18] | 247 ± 350 nM | – | 247 ± 35 nM
CN(Cc1ccc(B(O)O)cc1)c1ncc(C(=O)Nc2ccc(F)cc2)cn1 [Compound 19] | 244 ± 150 nM | – | 244 ± 15 nM
CN(Cc1ccccc1B(O)O)c1ccc(C(=O)Nc2ccc(F)cc2)cn1 [Compound 8] | 1000 ± 200 nM | – | 3700 ± 600 nM
O=C(Nc1ccc(F)cc1)c1ccc(NCc2ccccc2B(O)O)nc1 [Compound 10] | 1700 ± 200 nM | – | 1700 ± 200 nM
